In patent publication US20050282818A1, “Ubiquitin ligase inhibitors” (Rigel Pharmaceuticals, Inc., priority 2004, published 2005):

Key:
[1] = molecular target: APC11/APC2 (Homo sapiens, UniProt Q9NYG5+Q9UJX6); assay: APC-11/APC-2 ligase assay (APC auto ubiquitination); type: biochemical; conditions: APC assay
Experimental: For the assays described below, the TRAF6/Uev1A/UBC13 assay is the biochemical plate-based assay of TRAF6 ligase activity using Ubc13 as the E2 enzyme. The gel-based assay is the biochemical solution-based TRAF6 ligase assay (by SDS-PAGE and Western blot) to confirm the plate-based ELISA assay. The APC assay is an assay which is another E3 ligase (APC2/APC11) biochemical assay.
E3 (His APC11/APC2— “APC”) auto ubiquitination was measured as described in U.S. patent application Ser. No. 09/826,312 (Publication No. U.S. 2002 0042083 A1), which is incorporated by reference in its entirety. Details of the protocol are described below. Activity in the presence of the compound was determined relative to a parallel control in which only DMSO was added. Values of the IC50 were typically determined using 6 or 8 different concentrations of the compound, although as few as 2 concentrations may be used to approximate the IC50 value.
Nickel coated 96 well plates (Pierce 15242) were blocked for 1 hour with 100 μl of blocking buffer at room temperature. The plates were washed 4 times with 225 μl of 1 […]PBS and 80 μl of the reaction buffer were added that contained 100 ng/well of Flag ubiquitin. To this, 10 μl of the test compound diluted in DMSO were added. After the test compound was added, 10 μl of E1 (human), E2 (Ubch5c), and APC in Protein Buffer was added to obtain a final concentration of 5 ng/well of E1, 20 ng/well of E2 and 100 ng/well of APC. The plates were shaken for 10 minutes and incubated at room temperature for 1 hour. After incubation, the plates were washed 4 times with 225 μl of 1×PBS and 100 μl/well of Antibody Mix were added to each well. The plates were incubated at room temperature for another hour after which they were washed 4 times with 225 μl of 1×PBS and 100 μl/well of Lumino substrate were added to each well. The luminescence was measured by using a BMG luminescence microplate reader. The Blocking Buffer (1% Casein in 1×PBS) was stored at 4° C. until use.
The reaction buffer consisted of 62.5 mM Tris pH 7.6 (Trizma Base—Sigma T 8524), 3 mM MgCl2 (Magnesium Chloride—Sigma M 2393), 1 mM DTT (Sigma D 9779), 2.5 mM ATP (Roche Boehringer Mann Corp. 635 316), 100 ng/well of Flag ubiquitin, 0.1% BSA (Sigma A 7906), and 0.05% Tween 20 (Sigma P 7949).
The Protein Buffer consisted of 20 mM Tris pH 7.6, 10% glycerol (Sigma G 5516) and 1 mM DTT.
The antibody mix consisted of 0.25% BSA (Sigma A 7906) in 1×PBS, 1/50,000 anti Flag (Sigma F 3165), 1/100,000 of anti Mouse IgG HRP (Jackson Imrunoresearch #115 035 146).
The substrate mix consisted of SuperSignal Substrate from Pierce (catalog number 37070ZZ) and was prepared by mixing 100 ml of the peroxide solution, 100 ml of the enhancer solution and 100 ml of Milli Q® water.

[2] = system: ICAM-1 expression in A549 cells; assay: ICAM assay (IL-1 induced ICAM-1/CD54 expression in A549 cells); type: cell-based, human; conditions: Homo sapiens, A549, ICAM assay
Excerpt: The expression of intercellular adhesion molecule (ICAM)-1 in endothelial cells is pivotal in supporting lymphocyte migration across the vascular endothelium. TNF/IL-1 induces the NF-kB pathway in which NF-kB acts as a transcription factor and activation of NF-kB induces ICAM expression. IkB inhibits NF-KB by binding to it and retaining NF-kB in the cytoplasm. Upon cytokine stimulation, several signaling molecule including TRAF6, IKKs, and TAK1 are activated which lead to the phosphorylation of IkB. Phosphorylated IkB is then ubiquitinated by the SCF complex and degraded by proteasome, thereby releasing NF-kB to translocate into the nucleus. In the nucleus, NF-kB binds to DNA and activates transcription of various genes that are involved in inflammation, cell survival, and apoptosis. The ICAM assay is a primary assay for HTS as well as a cell based assay for TRAF6 inhibitors.
The following materials are used 96-well plates; F12K complete medium that includes 10% FBS and 1% P/S (penicillin/streptomycin); 1×PBS; 5 ug/ml IL-1, Human CD54 (CALTAG Laboratory, Cat#MHCD5400-4); anti-mouse-IgG (Jackson Lab, Cat#115-035 146); and A549 cells.
Procedure. 10,000 A549 cells/well were seeded in 100 μl F12K complete medium in a 96-well white plate. The seeded plate was incubate at 37° C. incubator in 5% CO2 overnight. After the overnight incubation, 4 μl of diluted test compound was added and incubated for 1 hour at 37° C. After the 1 hour incubation, 4 μl of 25 ng/ml IL-1 was added to each well and the cells were stimulated at 37° C. for 4 hours.
After stimulation, the cells were stained with CD54 (1:1000 diluted with medium) and anti-mouse IgG (1:1100 diluted with medium) for 1 hour. Subsequently, the medium was removed and each well was washed with 200 μl of PBS three times. Detection of activity was performed by addition of 100 μl/well of lumino substrate.

[3] = molecular target: T1, TRAF6/Uev1A/Ubc13 (Homo sapiens, UniProt Q9Y4K3); assay: TRAF6/Uev1A/Ubc13 plate-based ubiquitin ligase assay; type: biochemical
T1 sequence (Q9Y4K3 1-522): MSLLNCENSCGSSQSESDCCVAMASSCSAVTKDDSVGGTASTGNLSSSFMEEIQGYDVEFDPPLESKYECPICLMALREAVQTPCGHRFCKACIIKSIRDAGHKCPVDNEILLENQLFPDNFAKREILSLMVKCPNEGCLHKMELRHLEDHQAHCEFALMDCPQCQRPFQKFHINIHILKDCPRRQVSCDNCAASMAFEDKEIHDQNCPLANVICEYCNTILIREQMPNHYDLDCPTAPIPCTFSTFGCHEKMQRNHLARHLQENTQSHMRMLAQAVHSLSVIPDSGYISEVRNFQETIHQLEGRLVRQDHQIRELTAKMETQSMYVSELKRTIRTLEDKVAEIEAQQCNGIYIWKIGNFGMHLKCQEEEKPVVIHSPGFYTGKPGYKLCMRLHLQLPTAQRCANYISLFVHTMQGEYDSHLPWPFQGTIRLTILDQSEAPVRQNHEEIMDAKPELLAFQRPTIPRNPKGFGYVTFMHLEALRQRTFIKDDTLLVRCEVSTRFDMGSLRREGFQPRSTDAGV
Summary of the method: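 Ligase activity was read as luminescence from anti-Flag/HRP detection of Flag-ubiquitin bound to casein-blocked Ni-plates alongside His-ubiquitin after a 1 h room-temperature reaction. Buffer: 62.5 mM Tris pH 7.5, 6.25 mM MgCl2, 1.0 mM DTT, 2 μM ATP; E1, Uev1a/Ubc13 and TRAF6 added last to start. IC50s derived across compound concentrations.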

Chain of APC11/APC2 (Q9NYG5 whole entry): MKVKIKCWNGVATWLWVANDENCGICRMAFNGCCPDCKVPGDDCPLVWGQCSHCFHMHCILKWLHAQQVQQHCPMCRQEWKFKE
Chain of APC11/APC2 (Q9UJX6 whole entry): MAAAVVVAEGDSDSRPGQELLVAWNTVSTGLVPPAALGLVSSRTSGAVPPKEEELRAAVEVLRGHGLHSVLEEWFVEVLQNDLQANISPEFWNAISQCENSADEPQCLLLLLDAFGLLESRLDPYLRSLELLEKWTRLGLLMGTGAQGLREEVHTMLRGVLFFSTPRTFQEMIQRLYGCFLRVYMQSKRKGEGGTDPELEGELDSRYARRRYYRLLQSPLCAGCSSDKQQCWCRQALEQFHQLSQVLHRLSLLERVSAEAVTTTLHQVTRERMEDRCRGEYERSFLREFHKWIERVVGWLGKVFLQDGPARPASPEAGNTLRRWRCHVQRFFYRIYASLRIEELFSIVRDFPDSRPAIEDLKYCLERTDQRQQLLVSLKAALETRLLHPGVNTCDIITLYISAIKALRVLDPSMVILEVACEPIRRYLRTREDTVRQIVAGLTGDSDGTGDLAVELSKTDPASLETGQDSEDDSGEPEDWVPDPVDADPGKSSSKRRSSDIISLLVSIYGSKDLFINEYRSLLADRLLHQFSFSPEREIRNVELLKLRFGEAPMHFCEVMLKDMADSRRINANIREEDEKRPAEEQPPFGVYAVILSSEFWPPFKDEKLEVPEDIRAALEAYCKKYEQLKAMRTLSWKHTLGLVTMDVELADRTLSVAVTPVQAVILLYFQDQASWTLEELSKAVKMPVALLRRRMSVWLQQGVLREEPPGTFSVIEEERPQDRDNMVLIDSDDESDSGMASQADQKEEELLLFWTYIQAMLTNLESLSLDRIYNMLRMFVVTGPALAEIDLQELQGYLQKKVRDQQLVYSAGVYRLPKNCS

IC50 [1] [µM] | IC50 [2] [µM] | IC50 [3] [µM] | SMILES
≥ 20 | ≥ 20 | ≥ 20 | O=[N+]([O-])c1cc(-c2cccc3cccnc23)c2nonc2c1 [compound 483, 6-nitro-4-(quinolin-8-yl)-2,1,3-benzoxadiazole]
≥ 20 | 1 to 20 | ≥ 20 | O=C(Nc1ccc([N+](=O)[O-])c2nonc12)c1cccc(F)c1F [compound 427, 2,3-difluoro-N-(7-nitro-2,1,3-benzoxadiazol-4-yl)benzamide]
≥ 20 | ≥ 20 | ≥ 20 | FC(F)(F)c1ccc(-c2cc(-c3ccc(C(F)(F)F)cc3)c3nonc3c2)cc1 [compound 420, 4,6-bis(4-[trifluoromethyl]phenyl)-2,1,3-benzoxadiazole]
≥ 20 | ≥ 20 | ≥ 20 | O=[N+]([O-])c1ccc(Nc2cccc(F)c2F)c2nonc12 [compound 397, N-(2,3-difluorophenyl)-7-nitro-2,1,3-benzoxadiazol-4-amine]
≥ 20 | ≥ 20 | ≥ 20 | Cc1cc(C)cc(-c2ccc(N)c3nonc23)c1 [compound 426, 7-(3,5-dimethylphenyl)-2,1,3-benzoxadiazol-4-amine]
1 to 20 | 1 to 20 | ≥ 20 | Cc1cccc(-c2cc([N+](=O)[O-])cc3nonc23)c1 [compound 478, 6-nitro-4-m-tolyl-2,1,3-benzoxadiazole]
1 to 20 | 1 to 20 | 1 to 20 | CC(=O)c1cccc(-c2ccc([N+](=O)[O-])c3nonc23)c1 [compound 443, 1-(3-[7-nitro-2,1,3-benzoxadiazol-4-yl]phenyl)ethanone]
≥ 20 | ≥ 20 | ≥ 20 | Cc1ccc2nsnc2c1S(=O)(=O)Nc1ccccc1F [compound 452, N-(2-fluorophenyl)-5-methyl-2,1,3-benzthiadiazole-4-sulfonamide]
≥ 20 | ≥ 20 | ≥ 20 | COC(=O)c1ccc(NS(=O)(=O)c2ccc(Sc3ccc(O)cc3)c3nonc23)cc1 [compound 335, methyl 4-{[(7-{[4-hydroxyphenyl]thio}-2,1,3-benzoxadiazol-4-yl)sulfonyl]amino}benzoate]
≥ 20 | ≥ 20 | ≥ 20 | COc1ccc(OC)c(NS(=O)(=O)c2ccc(Nc3ccccc3OC)c3nonc23)c1 [compound 367, N-(2,5-dimethoxyphenyl)-7-([2-methoxyphenyl]amino)-2,1,3-benzoxadiazole-4-sulfonamide]
1 to 20 | 1 to 20 | 1 to 20 | O=[N+]([O-])c1ccc(-c2ccc(C(F)(F)F)cc2)c2nonc12 [compound 311, 4-Nitro-7-[4-(trifluoromethyl)phenyl]-2,1,3-benzoxadiazole]
≥ 20 | ≥ 20 | ≥ 20 | O=S(=O)(Nc1ccc(F)cc1F)c1ccc(Cl)c2nonc12 [compound 364, 7-chloro-N-(2,4-difluorophenyl)-2,1,3-benzoxadiazole-4-sulfonamide]
1 to 20 | ≥ 20 | 1 to 20 | Nc1cccc2c(NS(=O)(=O)c3ccc(Sc4cccc5cccnc45)c4nonc34)cccc12 [compound 390, N-(5-aminonaphthalen-1-yl)-7-(quinolin-8-ylthio)-2,1,3-benzoxadiazole-4-sulfonamide]
≥ 20 | 1 to 20 | ≥ 20 | O=S(=O)(c1ccc(Sc2cccc3ccccc23)c2nonc12)N1CCC2(CC1)OCc1ccccc12 [compound 334, 1′-{(7-[naphth-1-ylthio]-2,1,3-benzoxadiazol-4-yl)}sulfonyl-3H-spiro[2-benzofuran-1,4′-piperidine]]
≥ 20 | ≥ 20 | ≥ 20 | Cc1cc(NS(=O)(=O)c2ccc(Cl)c3nonc23)no1 [compound 368, 7-chloro-N-(5-methylisoxazol-3-yl)-2,1,3-benzoxadiazole-4-sulfonamide]
≥ 20 | 1 to 20 | 1 to 20 | O=[N+]([O-])c1ccc(-c2ccc(F)cc2)c2nonc12 [compound 442, 4-nitro-7-(4-fluorophenyl)-2,1,3-benzoxadiazole]
1 to 20 | 1 to 20 | 1 to 20 | CC(C)(C)c1ccc(-c2cc([N+](=O)[O-])cc3nonc23)cc1 [compound 481, 4-(4-t-butylphenyl)-6-nitro-2,1,3-benzoxadiazole]
≥ 20 | 1 to 20 | ≥ 20 | COc1cccc(Nc2ccc3nonc3c2S(=O)(=O)Nc2cccc(OC)c2OC)c1OC [compound 408, N-(2,3-dimethoxyphenyl)-5-([2,3-dimethoxyphenyl]amino)-2,1,3-benzoxadiazole-4-sulfonamide]
≥ 20 | ≥ 20 | ≥ 20 | Cc1cccc(-c2cc3nsnc3cc2F)c1C [compound 457, 5-(2,3-dimethylphenyl)-6-fluoro-2,1,3-benzthiadiazole]
≥ 20 | ≥ 20 | ≥ 20 | Cc1cc(C)c(NS(=O)(=O)c2ccc(Cl)c3nonc23)c(C)c1 [compound 355, 7-chloro-N-mesityl-2,1,3-benzoxadiazole-4-sulfonamide]
≥ 20 | ≥ 20 | ≥ 20 | O=S(=O)(NCC1CC1)c1ccc(Cl)c2nonc12 [compound 449, 7-chloro-N-(cyclopropylmethyl)-2,1,3-benzoxadiazole-4-sulfonamide]
